# In patent US9828360B2 (Array BioPharma Inc., priority 2012, dated 2017):
# Target: TrkA (Homo sapiens, UniProt P04629)
# Assay: TrkA LanthaScreen Eu Kinase Binding Assay
# Parameters: 6HIS tagged cytoplasmic domain from Invitrogen, Cat. No. PV3144; purchased Invitrogen PV3144
# Details: averaged IC50 values, read-out: TrkA Enzyme IC50
# Method: TrkA binding activity was determined in a TrkA LanthaScreen™ Eu Kinase Binding Assay. 5 nM His-tagged recombinant human TrkA (6HIS tagged cytoplasmic domain from Invitrogen, Cat. No. PV3144) was incubated with 4 nM Alexa-Fluor® Tracer 236 (Invitrogen Cat. No. PV5592), 2 nM biotinylated anti-His (Invitrogen Cat. No. PV6090), and 2 nM europium-labeled Streptavidin (Invitrogen Cat. No. PV5899), in buffer (25 mM MOPS, pH 7.5, 5 mM MgCl2, 0.005% Triton X-100). Three fold serial dilutions of compounds of the invention in DMSO were added to a final percentage of 2% DMSO. After 60-minute incubation at 22° C., the reaction was measured using the EnVision mutlimode plate reader (PerkinElmer) via TR-FRET dual wavelength detection at […]. The percent of control was calculated using a ratiometric emission factor. The IC50 values were determined by fitting a four parameter model to the percent of control data.
# Table A provides averaged IC50 values for compounds of the invention when tested in the assay of Example A, where A represents an averaged IC50 value <100 nM; and B represents an averaged IC50 value from 100 to 1,000 nM.
# Sequence of TrkA (P04629 440-796 limits assumed): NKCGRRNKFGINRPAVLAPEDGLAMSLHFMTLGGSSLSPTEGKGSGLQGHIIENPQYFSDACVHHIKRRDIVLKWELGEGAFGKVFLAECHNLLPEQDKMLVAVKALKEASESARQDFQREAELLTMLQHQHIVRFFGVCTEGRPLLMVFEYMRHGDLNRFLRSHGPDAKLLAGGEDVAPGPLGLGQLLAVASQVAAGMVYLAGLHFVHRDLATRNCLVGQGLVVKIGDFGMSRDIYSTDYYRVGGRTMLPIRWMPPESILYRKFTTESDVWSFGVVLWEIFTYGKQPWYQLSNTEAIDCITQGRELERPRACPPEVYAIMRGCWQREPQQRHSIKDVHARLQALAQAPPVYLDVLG
row,IC50 [nM],SMILES
1,100 to 1000,"COCCN1C[C@@H](NC(=O)Nc2cc(=O)n(C)nc2-c2ccccc2)[C@H](c2ccc(F)c(F)c2)C1 [Example 34, 1-((3S,4R)-4-(3,4-difluorophenyl)-1-(2-methoxyethyl)pyrrolidin-3-yl)-3-(1-methyl-6-oxo-3-phenyl-1,6-dihydropyridazin-4-yl)urea]"
2,< 100,"COCCN1C[C@@H](NC(=O)Nc2c(-c3ccccc3)nsc2C(N)=O)[C@H](c2ccc(F)c(F)c2)C1 [Example 36, 4-(3-((3S,4R)-4-(3,4-difluorophenyl)-1-(2-methoxyethyl)pyrrolidin-3-yl)ureido)-3-phenylisothiazole-5-carboxamide]"
3,< 100,"COCCN1C[C@@H](NC(=O)Nc2c(-c3ccccc3)nc(C)n2C)[C@H](c2ccc(F)c(F)c2)C1 [Example 38, 1-((3S,4R)-4-(3,4-difluorophenyl)-1-(2-methoxyethyl)pyrrolidin-3-yl)-3-(1,2-dimethyl-4-phenyl-1H-imidazol-5-yl)urea]"
4,< 100,"COCCN1C[C@@H](NC(=O)Nc2oc(C(C)C)nc2-c2ccccc2)[C@H](c2ccc(F)c(F)c2)C1 [Example 43, 1-((3S,4R)-4-(3,4-difluorophenyl)-1-(2-methoxyethyl)pyrrolidin-3-yl)-3-(2-isopropyl-4-phenyloxazol-5-yl)urea]"
5,< 100,"COCCN1C[C@@H](NC(=O)Nc2sc(-c3ccccc3)nc2C)[C@H](c2ccc(F)c(F)c2)C1 [Example 45, 11-((3S,4R)-4-(3,4-difluorophenyl)-1-(2-methoxyethyl)pyrrolidin-3-yl)-3-(4-methyl-2-phenylthiazol-5-yl)urea]"
6,< 100,"COCCN1C[C@@H](NC(=O)Nc2sc(C(C)C)nc2-c2ccccc2)[C@H](c2ccc(F)c(F)c2)C1 [Example 47, 1-((3S,4R)-4-(3,4-difluorophenyl)-1-(2-methoxyethyl)pyrrolidin-3-yl)-3-(2-isopropyl-4-phenylthiazol-5-yl)urea]"
7,100 to 1000,"COCCN1C[C@@H](NC(=O)Nc2sc(C(=O)OC)nc2-c2ccccc2)[C@H](c2ccc(F)c(F)c2)C1 [Example 49, methyl 5-(3-((3S,4R)-4-(3,4-difluorophenyl)-1-(2-methoxyethyl)pyrrolidin-3-yl)ureido)-4-phenylthiazole-2-carboxylate]"
8,< 100,COCCN1C[C@@H](NC(=O)Nc2sc(CO)nc2-c2ccccc2)[C@H](c2ccc(F)c(F)c2)C1 [Example 50]
9,< 100,"COCCN1C[C@@H](NC(=O)Nc2sc(C(C)(C)O)nc2-c2ccccc2)[C@H](c2ccc(F)c(F)c2)C1 [Example 51, 1-((3S,4R)-4-(3,4-difluorophenyl)-1-(2-methoxyethyl)pyrrolidin-3-yl)-3-(2-(2-hydroxypropan-2-yl)-4-phenylthiazol-5-yl)urea]"
10,100 to 1000,"COCCN1C[C@@H](NC(=O)Nc2sc(C(=O)N(C)C)nc2-c2ccccc2)[C@H](c2ccc(F)c(F)c2)C1 [Example 52, 5-(3-((3S,4R)-4-(3,4-difluorophenyl)-1-(2-methoxyethyl)pyrrolidin-3-yl)ureido)-N,N-dimethyl-4-phenylthiazole-2-carboxamide]"
11,100 to 1000,"COCCN1C[C@@H](NC(=O)Nc2nc(-c3ccccc3)nn2C)[C@H](c2ccc(F)c(F)c2)C1 [Example 54, 1-((3S,4R)-4-(3,4-difluorophenyl)-1-(2-methoxyethyl)pyrrolidin-3-yl)-3-(1-methyl-3-phenyl-1H-1,2,4-triazol-5-yl)urea]"

# Second part, the compound before the results:
row,SMILES,IC50 [nM]
1,"COCCN1C[C@@H](NC(=O)Nc2ccc(C)nc2-c2ccccc2)[C@H](c2cc(F)cc(F)c2)C1 [Example 31, 1-((3S,4R)-4-(3,5-difluorophenyl)-1-(2-methoxyethyl)pyrrolidin-3-yl)-3-(6-methyl-2-phenylpyridin-3-yl)urea]",< 100
2,"COCCN1C[C@@H](NC(=O)Nc2ccc(C)nc2-c2ccccc2)[C@H](c2ccc(F)cc2)C1 [Example 32, 1-((3S,4R)-4-(4-fluorophenyl)-1-(2-methoxyethyl)pyrrolidin-3-yl)-3-(6-methyl-2-phenylpyridin-3-yl)urea]",< 100
3,"COCCN1C[C@@H](NC(=O)Nc2ccn(C)c(=O)c2-c2ccccc2)[C@H](c2ccc(F)c(F)c2)C1 [Example 33, 1-((3S,4R)-4-(3,4-difluorophenyl)-1-(2-methoxyethyl)pyrrolidin-3-yl)-3-(1-methyl-2-oxo-3-phenyl-1,2-dihydropyridin-4-yl)urea]",100 to 1000
4,"COCCN1C[C@@H](NC(=O)Nc2cc(=O)n(CC(F)(F)F)nc2-c2ccccc2)[C@H](c2ccc(F)c(F)c2)C1 [Example 35, 1-((3S,4R)-4-(3,4-difluorophenyl)-1-(2-methoxyethyl)pyrrolidin-3-yl)-3-(6-oxo-3-phenyl-1-(2,2,2-trifluoroethyl)-1,6-dihydropyridazin-4-yl)urea]",100 to 1000
5,"COCCN1C[C@@H](NC(=O)Nc2c(-c3ccccc3)c(=O)n(C)n2C)[C@H](c2ccc(F)c(F)c2)C1 [Example 39, 1-((3S,4R)-4-(3,4-difluorophenyl)-1-(2-methoxyethyl)pyrrolidin-3-yl)-3-(1,2-dimethyl-5-oxo-4-phenyl-2,5-dihydro-1H-pyrazol-3-yl)urea]",< 100
6,"CCn1c(=O)c(-c2ccccc2)c(NC(=O)N[C@@H]2CN(CCOC)C[C@H]2c2ccc(F)c(F)c2)n1C [Example 40, 1-((3S,4R)-4-(3,4-difluorophenyl)-1-(2-methoxyethyl)pyrrolidin-3-yl)-3-(1-ethyl-2-methyl-5-oxo-4-phenyl-2,5-dihydro-1H-pyrazol-3-yl)urea]",< 100
7,"COCCN1C[C@@H](NC(=O)Nc2oc(-c3ccccc3)nc2C)[C@H](c2ccccc2)C1 [Example 42, 1-((3S,4R)-1-(2-methoxyethyl)-4-phenylpyrrolidin-3-yl)-3-(4-methyl-2-phenyloxazol-5-yl)urea]",100 to 1000
8,"COCCN1C[C@@H](NC(=O)Nc2oc(C(C)C)nc2-c2ccccc2)[C@H](c2ccccc2)C1 [Example 44, 11-(2-isopropyl-4-phenyloxazol-5-yl)-3-((3S,4R)-1-(2-methoxyethyl)-4-phenylpyrrolidin-3-yl)urea]",100 to 1000
9,"COCCN1C[C@@H](NC(=O)Nc2sc(-c3ccccc3)nc2C)[C@H](c2ccccc2)C1 [Example 46, 1-((3S,4R)-1-(2-methoxyethyl)-4-phenylpyrrolidin-3-yl)-3-(4-methyl-2-phenylthiazol-5-yl)urea]",< 100
10,"COCCN1C[C@@H](NC(=O)Nc2nc(C)nn2-c2ccccc2)[C@H](c2ccc(F)c(F)c2)C1 [Example 53, 1-((3S,4R)-4-(3,4-difluorophenyl)-1-(2-methoxyethyl)pyrrolidin-3-yl)-3-(3-methyl-1-phenyl-1H-1,2,4-triazol-5-yl)urea]",< 100
11,"COCCN1C[C@@H](NC(=O)Nc2sc(-c3cnn(C)c3)nc2-c2ccccc2)[C@H](c2ccc(F)c(F)c2)C1 [Example 56, 1-((3S,4R)-4-(3,4-difluorophenyl)-1-(2-methoxyethyl)pyrrolidin-3-yl)-3-(2-(1-methyl-1H-pyrazol-4-yl)-4-phenylthiazol-5-yl)urea di(trifluoroacetate)]",< 100
